Tested on: MPTP-lesioned cynomolgus macaques
Test: Acute DPI-289 in combination with low-dose L-DOPA, versus high-dose L-DOPA, in MPTP-lesioned macaques with L-DOPA-induced dyskinesia
Assay type: in vivo, Macaca fascicularis
From the text: This study utilized female MPTP-lesioned cynomolgus macaques that have received chronic repeat-treatment with L-DOPA and manifested stable and reproducible dyskinesia, of choreic and dystonic nature, in response to subsequent L-DOPA-treatments. Eight cynomolgus monkeys (Macaca fascicularis, 7.6-13.1 years of age, 3.0-4.5 kg) were used in this study. In a prior experiment, for each individual animal a low and high dose of L-DOPA was established such that the low dose (LD1) provided modest anti-parkinsonian action (1-2 h) and elicited predominantly non-disabling dyskinesia, the high dose (LDh) provided the best anti-parkinsonian effect achievable but also elicited disabling dyskinesia and an anti-parkinsonian benefit of 2-3 h duration
The behavioral effects of acute DPI-289 administered in combination with low-dose L-DOPA (LD1) were assessed. Also higher dose of L-DOPA was also assessed without the addition of DPI-289. The low dose (LD1) was about 10 to 11 mg/kg of L-DOPA which is considered to be sub-optimal in terms of anti-parkinsonian benefit. The dose of DPI-289 was 20 mg/kg and the high dose of L-DOPA was about 30 to 31 mg/kg and considered to an optimal does in terms of anti-parkinsonian benefit but with disabling dyskinesia. The DPI-289 was administered one (1) hour prior to the L-DOPA and start of observation. Activity counts were collected and parkinsonian disability and dyskinesia was assessed via post-hoc analysis of video-recordings by a movement disorder neurologist blinded to treatment.
On the day before behavioral observations, food was removed overnight, from 5 p.m. On days of behavioral assessment, treatment was administered to the animals in their home cage at approximately 9 a.m. A 6 h period of observation then commenced 1 h after oral dosing.
The animals were rendered parkinsonian by once daily subcutaneous injection of 0.2 mg/kg MPTP, administered for 8-12 days, until the first appearance of parkinsonism symptoms. After this time, a parkinsonian syndrome reached a moderate to marked level, over approximately 30 days, and stabilized. Additional administrations of MPTP were given to some animals to titrate to similar degrees of parkinsonism in individuals across the group. […] Sixty days after commencing MPTP administration, L-DOPA (25 mg/kg) was administered orally twice daily for at least two months. L-DOPA was given with the decarboxylase inhibitor benserazide (as Madopar™). This treatment leads to the development of motor fluctuations, including dyskinesia.

[1] = DPI-289 20 mg/kg in combination with low-dose L-DOPA

In the case of `CCN(CC)C(=O)c1ccc(C(c2cccc(O)c2)N2C[C@@H](C)N(Cc3cccc(F)c3)C[C@@H]2C)cc1` (stereo partly drawn) [DPI-289, 4-((alpha-R)-alpha-((2S,5R)-2,5-Dimethyl-4-(3-fluorobenzyl)-1-piperazinyl)-3-hydroxybenzyl)-N,N-diethylbenzamide], the “Good ON-time” value [1] is reported as “comparable ‘good’ time as that of the high dose of L-DOPA”, the alertness [1] is reported as “improvement in alertness value that mirrored that of the high dose of L-DOPA” and the parkinsonian disability [1] is reported as “even and consistent level of fairly mild parkinsonian disability”. The postural instability [1] was “reduced postural instability from about 2 to 6 hours after the dosing”, the “range of movement impairment” value [1] was “reduced range of movement impairment than low dose L-DOPA alone but this difference did not reach statistical significance” and the motor activity (DPI-289 20 mg/kg in combination with low-dose L-DOPA (about 10 to 11 mg/kg), cf. high dose L-DOPA) was “extended activity into four and five hours”. The dyskinesia (DPI-289 20 mg/kg in combination with low-dose L-DOPA, cf. low-dose L-DOPA alone) was “no additional dyskinesia”, the “BAD ON-time (ON-time with disabling dyskinesia)” value (DPI-289 20 mg/kg in combination with low-dose L-DOPA, relative to high dose L-DOPA) was “considerably less of ‘bad’ time” and the bradykinesia (DPI-289 20 mg/kg in combination with low-dose L-DOPA, three to six hours after dosing) was “same level of bradykinesia as that of the high dose of L-DOPA”. For the same compound, the “duration of effect on parkinsonian disability” value (DPI-289 20 mg/kg in combination with sub-therapeutic L-DOPA) was “at least 6 hours”.

Source: US10973815B2, “Delta opioid agonist mu opioid antagonist compositions and methods for treating Parkinsons disease” (priority 2016, dated 2021)
